# Experimental data as given in paper PMC6718988, “Bioactivity and Bactericidal Mechanism of Histidine-Rich β-Hairpin Peptide Against Gram-Negative Bacteria” (International Journal of Molecular Sciences, 2019).
# Like-named read-outs stand apart in the source and are kept apart here. Where a SMILES comes first, the peptide text is derived from it. Bridges are numbered along the chain shown (N, C = ends). [ ]: non-standard residue; d: D form. The star is where a group is joined. X1 = CC[C@H](C)CCCCC(=O)*; Dab = NCC[C@H](N)C(=O)O
# Key:
# Gram-negative bacteria = assay: MICs against Gram-negative strains (geometric mean, range); format: cell-based; settings: for MBC (GM), geometric mean of MICs, Gram (−): Gram-negative strains, 256 μM used where no activity at 128 μM
# Protocol: (§1) The minimum inhibitory concentration (MIC) was measured using a broth microdilution method to determine the in vitro antimicrobial activity of the peptides. Bacteria were inoculated into MHB and incubated overnight at 37 °C until the bacteria were in log phase growth. Next, we corrected the bacterial concentration to approximately 1 × 10^5 CFU/mL using MHB. The peptides were added to 96-well plates containing 0.01% acetic acid and 0.2% bovine serum albumin at final concentrations ranging from 0.25 to 128 μM. After incubation at 37 °C for 24 h, the absorbance was measured at 492 nm using a microplate reader (Tecan GENios F129004, Tecan, Austria). Broth containing microbes and […] were used as positive and negative controls, respectively. The lowest peptide concentration with no increase in absorbance compared to that of the negative control was defined as the MIC. The experiments were independently performed three times.
# [1] = RP-HPLC retention time as measure of hydrophobicity; format: physicochemical; settings: analytical Kromasil C18 column 4.6 mm × 250 mm, 5.0 μm, acetonitrile, flow 1.0 mL/min, used as measure of hydrophobicity
# Protocol: The hydrophobicities of the peptides in solution were reliably mirrored by their high-performance liquid chromatography (HPLC)retention times. The retention times for peptide HI2, HW2, HV2, HF2, and PG-1 were 11.13, 10.55, 12.20, 18.06 and 12.56 min, respectively, indicating the following hydrophobic order: HF2 > PG-1 > HV2 > HI2 > HW2(Table 1).
# The designed peptides were synthesized and purified by GL Biochem (Shanghai, China). Acetonitrile was used on an analytical Kromasil C18 column (4.6 mm × 250 mm, 5.0 μm, LC 3000, Beijing, China), and the purity of the peptides was determined to be greater than 95% via reversed-phase high-performance liquid chromatography (RP-HPLC) with a flow rate of 1.0 mL/min. The experimental molecular weights of the peptides were evaluated via ESI-MS analysis, and these values were very close to the calculated masses. Next, the peptides were dissolved in deionized water at a concentration of 2.56 mM, and the peptide solutions were stored at −20 °C.
# [2] = LPS binding assay (BODIPY-TR-cadaverine displacement); set-up: species or system E. coli; settings: peptide concentration higher than 4 μM; 50 μg/mL LPS, 5 μg/mL BODIPY-TR cadaverine, Tris 50 mM pH 7.4; 100% = 10 μg/mL polymyxin B
# Protocol: The abilities of the antimicrobial peptides to bind LPS were determined using the fluorescent dye BODIPY-TR-cadaverine (BC) substitution method. LPS (50 μg/mL) from E. coli O111:B4 was incubated with BC (5 μg/mL) in Tris buffer (50 mm, pH 7.4) for 4 h. Next, 50 μL of various concentrations of peptides (final concentration of 1–64 μM) and 50 μL of LPS-BC mixture were added to 96-well plates, and the fluorescence was measured using a fluorescence spectrophotometer (Infinite 200 pro, Tecan, China) at an excitation wavelength of 580 nm and an emission wavelength of 620 nm. Each test was performed three times. The values were converted to %∆F (AU) using the following equation:%ΔF (AU) = [(Fobs − F0)/(F100 − F0)] × 100 where Fobs is the fluorescence value measured in the presence of the peptide, F0 is the initial fluorescence of LPS with BC without the addition of peptides, F100 is the fluorescence value produced by adding 10 μg/mL polymyxin B.
# E. coli K88 = assay: microbe, parasite or virus in culture
# Protocol: as §1
# [3] = test system: methicillin-resistant S. aureus ATCC43300; assay: microbe, parasite or virus in culture
# Protocol: as §1
# E. coli UB1005 = assay: microbe, parasite or virus in culture
# Protocol: as §1
# S. aureus ATCC29213 = assay: microbe, parasite or virus in culture
# Protocol: as §1
# S. epidermidis ATCC12228 = assay: microbe, parasite or virus in culture
# Protocol: as §1
# E. coli K99 = assay: microbe, parasite or virus in culture
# Protocol: as §1
# S. pullorum C7913 = assay: microbe, parasite or virus in culture
# Protocol: as §1
# P. aeruginosa ATCC27853 = assay: microbe, parasite or virus in culture
# Protocol: as §1
# E. coli ATCC25922 = assay: microbe, parasite or virus in culture
# Protocol: as §1
# [4] = test system: human red blood cells (hRBCs); assay: Hemolytic activity; settings: 1 h, OD 570 nm
# Protocol: Briefly, collected human red blood cells (hRBCs) were washed three times with PBS (pH 7.4) and diluted to 1% in PBS. Next, equal volumes of blood cells were mixed with different peptide concentrations in 96-well plates followed by incubated at 37 °C for 1 h. The mixtures were centrifuged (1000 g, 5 min), and the supernatants were transferred to 96-well plates to measure the optical density (OD) at 570 nm. Untreated blood cells were used as negative controls, and 0.1% Triton X-100-treated blood cells were used as positive controls. The minimum peptide concentration corresponding to 5% hemolytic activity was defined as the minimal hemolytic concentration (MHC). These assays were independently repeated three times.
# [5] = test system: Gram-positive and Gram-negative bacteria
# Protocol: as §1
# Gram-positive bacteria = test system: Gram-positive bacteria
# Protocol: as §1
# [6] = E. coli K88, MHB, about 1 × 10^5 CFU/mL, 37 °C, 24 h, three independent experiments
# [7] = S.aureus 43300 (methicillin-resistant), MHB, about 1 × 10^5 CFU/mL, 37 °C, 24 h, three independent experiments
# [8] = S.aureus 29213, MHB, about 1 × 10^5 CFU/mL, 37 °C, 24 h, three independent experiments
# [9] = S.epidermidis 12228, MHB, about 1 × 10^5 CFU/mL, 37 °C, 24 h, three independent experiments
# [10] = E. coli K99, MHB, about 1 × 10^5 CFU/mL, 37 °C, 24 h, three independent experiments
# [11] = P. auruginosa 27853, MHB, about 1 × 10^5 CFU/mL, 37 °C, 24 h, three independent experiments
compound,measurement,setting,value
CC[C@H](C)[C@H](NC(=O)CNC(=O)[C@H]1CCCN1C(=O)[C@@H](NC(=O)[C@H](Cc1c[nH]cn1)NC(=O)[C@@H](NC(=O)[C@H](Cc1c[nH]cn1)NC(=O)[C@@H](NC(=O)[C@H](CCCNC(=N)N)NC(=O)[C@@H](N)CCCNC(=N)N)[C@@H](C)CC)[C@@H](C)CC)[C@@H](C)CC)C(=O)N[C@@H](Cc1c[nH]cn1)C(=O)N[C@H](C(=O)N[C@@H](Cc1c[nH]cn1)C(=O)N[C@H](C(=O)N[C@@H](CCCNC(=N)N)C(=O)N[C@@H](CCCNC(=N)N)C(N)=O)[C@@H](C)CC)[C@@H](C)CC [HI2] (H-RRIHIHI[dP]GIHIHIRR-NH2; N-terminus assumed),"MBC (GM), geometric mean of MICs, Gram (−)",Gram-negative bacteria,50.80 µM
same,Retention Time,[1],11.13 min
same,LPS binding ability relative to binding activity of polymyxin B,[2],higher than 60%
same,MIC,E. coli K88; [6],32 µM
same,MIC,[3]; [7],>128 µM
same,MIC,"E. coli UB1005; UB1005, 24 h",16 µM
same,MIC,S. aureus ATCC29213; [8],>128 µM
same,MIC,S. epidermidis ATCC12228; [9],>128 µM
same,MIC,E. coli K99; [10],>128 µM
same,MIC,"S. pullorum C7913; C7913, 24 h",16 µM
same,MIC,P. aeruginosa ATCC27853; [11],>128 µM
same,MIC,"E. coli ATCC25922; ATCC25922, 24 h",32 µM
same,hemolysis rate,"[4]; at the highest concentration (128 μM), 1% hRBC in PBS, 37 °C, 0.1% Triton X-100 positive control",3.4%
same,"MHC, minimum hemolytic concentration","[4]; concentration causing 5% hemolysis of hRBC, 1% hRBC in PBS pH 7.4, 37 °C, repeated three times",>128 µM
same,"MBC (GM), geometric mean of MICs, Gram (+,−)",[5]; 24 h,87.09 µM
same,"MBC (GM), geometric mean of MICs, Gram (+)",Gram-positive bacteria; 24 h,256 µM
"CC[C@H](C)CCCCC(=O)N[C@@H](CCN)C(=O)N[C@H](C(=O)N[C@@H](CCN)C(=O)N[C@H]1CCNC(=O)[C@H]([C@@H](C)O)NC(=O)[C@H](CCN)NC(=O)[C@H](CCN)NC(=O)[C@H](CC(C)C)NC(=O)[C@@H](Cc2ccccc2)NC(=O)[C@H](CCN)NC1=O)[C@@H](C)O [Polymyxin B, polymyxin B] (X1-[Dab]T[Dab][Dab][Dab][dF]L[Dab][Dab]T; lactam 4-C (inferred); N-terminus assumed)","MBC (GM), geometric mean of MICs, Gram (−)",Gram-negative bacteria,1.12 µM
same,MIC,E. coli K88; [6],0.5 µM
same,MIC,[3]; [7],64 µM
same,MIC,"E. coli UB1005; E. coli UB1005, MHB, about 1 × 10^5 CFU/mL, 37 °C, 24 h, three independent experiments",1 µM
same,MIC,S. aureus ATCC29213; [8],64 µM
same,MIC,S. epidermidis ATCC12228; [9],32 µM
same,MIC,E. coli K99; [10],1 µM
same,MIC,"S. pullorum C7913; S.pullorum C7913, MHB, about 1 × 10^5 CFU/mL, 37 °C, 24 h, three independent experiments",1 µM
same,MIC,P. aeruginosa ATCC27853; [11],2 µM
same,MIC,"E. coli ATCC25922; E. coli 25922, MHB, about 1 × 10^5 CFU/mL, 37 °C, 24 h, 0.25-128 μM, three independent experiments",2 µM
same,"MBC (GM), geometric mean of MICs, Gram (+,−)","[5]; all strains, 256 μM used where no activity at 128 μM",4 µM
same,"MBC (GM), geometric mean of MICs, Gram (+)","Gram-positive bacteria; Gram-positive strains, 256 μM used where no activity at 128 μM",50.8 µM
CN[C@H](CC(C)C)C(=O)N[C@H]1C(=O)N[C@@H](CC(N)=O)C(=O)N[C@H]2C(=O)N[C@H]3C(=O)N[C@H](C(=O)N[C@H](C(=O)O)c4cc(O)cc(O)c4-c4cc3ccc4O)[C@H](O)c3ccc(c(Cl)c3)Oc3cc2cc(c3O[C@@H]2O[C@H](CO)[C@@H](O)[C@H](O)[C@H]2O[C@H]2C[C@](C)(N)[C@H](O)[C@H](C)O2)Oc2ccc(cc2Cl)[C@H]1O [Vancomycin],geometric mean MIC,"Gram-negative bacteria; read-out: MBC (GM), geometric mean of MICs, Gram (−)",11.3 µM
same,MIC,"E. coli K88; Escherichia coli, K88, 24 h",2 µM
same,MIC,"[3]; Staphylococcus aureus, ATCC43300, 24 h",0.5 µM
same,MIC,"E. coli UB1005; Escherichia coli, UB1005, 24 h",16 µM
same,MIC,"S. aureus ATCC29213; Staphylococcus aureus, ATCC29213, 24 h",0.5 µM
same,MIC,"S. epidermidis ATCC12228; Staphylococcus epidermidis, ATCC12228, 24 h",0.5 µM
same,MIC,"E. coli K99; Escherichia coli, K99, 24 h",4 µM
same,MIC,"S. pullorum C7913; Salmonella enterica, PULLORUM, 24 h",8 µM
same,MIC,"P. aeruginosa ATCC27853; Pseudomonas aeruginosa, ATCC27853, 24 h",> 128 µM
same,MIC,"E. coli ATCC25922; Escherichia coli, ATCC25922, 24 h",8 µM
